According to patent publication US20190008757A1, “DERMATOLOGICAL OR COSMETIC COMPOSITIONS CONTAINING A POLYPHENOL?ENRICHED EXTRACT OF VITEX NEGUNDO” (Laboratoires Expanscience, priority 2016, published 2019):

How the values were obtained:
[1] = tested on: Interleukin-1 beta (IL1β); assay: Assay of IL1β in keratinocytes treated with 10 μg/mL PMA; type: cell-based, human; settings: 0.1 μM, 24 h pretreatment; for IL1Beta Mean: then 10 μg/mL PMA overnight; for IL1Beta Increase (%): versus PMA
Experimental: (§1) Release of the cytokines Interleukin-1 beta (IL1β) and Prostaglandin E2 (PGE2) was analysed. […] Inflammation was then induced by addition of 10 μg/mL PMA overnight. An assay of IL1β and PGE2 was then performed in the cell culture supernatants. In parallel, the number of biologically active cells was determined by a neutral red assay. The amount of cytokine measured for each condition was normalised to the number of living cells determined by the neutral red assay. The significance of the results was verified by a one-factor analysis of variance followed by Tukey's test (GraphPad PRISM software version 5.02, GraphPad Software, San Diego Calif. USA).

Prostaglandin E2 (PGE2) = assay: Assay of PGE2 in keratinocytes treated with 10 μg/mL PMA; type: cell-based, human; settings: 0.1 μM; for PGE2 Mean / PGE2 Increase (%): 24 h pretreatment; for PGE2 Mean: then 10 μg/mL PMA overnight; for PGE2 Increase (%): versus PMA
Experimental: as §1

[2] = tested on: Normal human keratinocytes; assay: Production of reactive oxygen species (DCFH-DA) in keratinocytes treated with H2O2; type: cell-based; settings: for ROS Mean: 24 h preincubation and during 100 μM H2O2 20 min, normalised to living cells; for ROS Increase (%): versus 100 μM H2O2; for ROS production following H2O2 treatment (in words): antioxidant references, 10 μM quercetin or 500 μM vitamin C
Experimental: The antioxidant effect of the polyphenol-enriched extract of Vitex negundo is evaluated using the incorporation of DCFHDA (2′,7′-dichlorofluorescin diacetate) into keratinocytes in culture. This molecule is a nonfluorescent marker in an unoxidised state. Under oxidising conditions (in this case stress induced by hydrogen peroxide, H2O2), DCFHDA will be degraded to DCF, a molecule which will emit fluorescence. […] Normal human keratinocytes were preincubated for 24 hours in the presence of 0.0005%, 0.001% and 0.005% (w/v) concentrations of the polyphenol-enriched extract of Vitex negundo, and 0.016%, 0.03% and 0.16% monopropylene glycol (controls corresponding to the solvent concentrations contained in the concentrations of Vitex negundo extract studied), 10 μM quercetin or 500 μM vitamin C (the latter two molecules serving as antioxidant reference). The cells are then treated for 1 hour in the presence of 0.5 mM DCFH-DA. Oxidation is induced by addition of 100 μM H2O2 for 20 minutes. A second treatment with the tested products is performed simultaneously with H2O2 stress (at the same concentrations as the pretreatment). Lastly, a measurement of fluorescence density (DFU) corresponding to the amount of ROS is performed using a microplate reader. In parallel, the number of biologically active cells was determined by a neutral red assay. The amount of ROS (reactive oxygen species) measured for each condition was normalised to the number of living cells determined by the neutral red assay. The significance of the results was verified by a one-factor analysis of variance followed by Tukey's test (GraphPad PRISM software version 5.02, GraphPad Software, San Diego Calif. USA).

[3] = tested on: human sensory neuron/old keratinocyte cocultures; assay: Neurite length of sensory neurons in neuron/keratinocyte co-cultures; type: cell-based; settings: 50 ng/mL
Experimental: Sensory neurons are derived from hiPS cells obtained from human fibroblasts. hiPS cells were cocultured with keratinocytes […]. The co-cultures were treated with the Vitex negundo extract at various concentrations (0.003%, 0.001%, 0.0005%, 0.0001%, 0.00005%, 0.00001% (w/v)), with 0.1% monopropylene glycol (extraction solvent control) and with 50 ng/mL nerve growth factor (NGF) serving as positive reference for dendrite elongation.
After 6 days of co-culture, the cells were fixed with 2% paraformaldehyde solution and then labelled with an anti-β-tubulin antibody. Labelling was observed using a fluorescence microscope and 20 images were acquired per co-culture. The length of the sensory neuron projections was measured and normalised by the number of labelled cell bodies. All statistics were done using the t-test and the ANOVA test (*p<0.05; **p<0.01; ***p<0.001).

C[C@@H]1C[C@H]2[C@@H]3CCC4=CC(=O)C=C[C@]4(C)[C@@]3(F)[C@@H](O)C[C@]2(C)[C@@]1(O)C(=O)CO [Dexamethasone, dexamethasone]
IL1Beta Mean [1]: 0.120 (pg/mL)/OD neutral red
IL1Beta Increase (%) [1]: −34%
PGE2 Mean (Prostaglandin E2 (PGE2)): 1339.332 (pg/mL)/OD neutral red
PGE2 Increase (%) (Prostaglandin E2 (PGE2)): −43%

COc1ccc2c(c1)c(CC(=O)O)c(C)n2C(=O)c1ccc(Cl)cc1 [Indometacin, indomethacin]
IL1Beta Mean [1]: 0.172 (pg/mL)/OD neutral red
IL1Beta Increase (%) [1]: −5%
PGE2 Mean (Prostaglandin E2 (PGE2)): 416.328 (pg/mL)/OD neutral red
PGE2 Increase (%) (Prostaglandin E2 (PGE2)): −82%
release of PGE2 (in words) (Prostaglandin E2 (PGE2); pretreatment for 24 hours): significantly decreased

O=c1c(O)c(-c2ccc(O)c(O)c2)oc2cc(O)cc(O)c12 [quercetin]
ROS Mean ([2]; 10 μmol/L): 24411 fluorescence units
ROS Increase (%) ([2]; 10 μmol/L): −82%
ROS production following H2O2 treatment (in words) [2]: significantly decreased

O=C1O[C@H]([C@@H](O)CO)C(O)=C1O [vitamin C]
ROS Mean ([2]; 500 μM): 11940 fluorescence units
ROS Increase (%) ([2]; 500 μM): −91%
ROS production following H2O2 treatment (in words) [2]: significantly decreased

NGF: nerve growth factor (NGF) serving as positive reference for dendrite elongation
total neurite length and neurite length per cell (in words) [3]: significantly increased
Neurite length per cell ([3]; 6 days of co-culture, control cells 143 ± 16): 212 ± 23 (*) arbitrary units
Total neurite length ([3]; 6 days of co-culture, control cells 6865 ± 633): 10393 ± 1849 (**) arbitrary units
